In patent publication US5126336A, “Antibiotic C-3 catechol-substituted cephalosporin compounds, compositions and method of use thereof” (Bristol-Myers Squibb Company, priority 1990, dated 1992):
In brackets after ≈: the same amount, converted by molar mass. Where two headings read alike, the source gives them in different places.

How the values were obtained:
Test in all cases: MIC, agar dilution
Format in all cases: cell-based
E. coli Juhl A15119 = conditions: Escherichia coli, JUHLA15119; E. coli Juhl A15119; Mueller-Hinton agar pH 7.2; 32° C., 18 hr; 10^6 cells/ml; read-out: MIC
Protocol: (§1) Minimum inhibitory concentrations (MICs) of the present series of cephalosporins were determined against 32 strains of test organisms by two-fold serial agar dilution method in Mueller-Hinton agar. Geometric means of MICs were calculated against six groups of the test organisms which are classified as follows and summarized in Table 1.
(§2) In vivo antibacterial activity was determined against three bacterial infections (S. aureus Smith, E. coli Juhl and P. aeruginosa A9843A) by intramuscular administration to mice just after the bacterial challenge. PD50 values are summarized in Table 3 in comparsion with the MIC values against the corresponding organisms.
(§3) Medium; MuellerHinton agar (pH = 7.2)
(§4) Incubation temperature: 32° C., 18 hr
(§5) Inoculum size; 10^6 cells/ml

S. aureus Smith = conditions: Staphylococcus aureus
Protocol: as §1, §2, §3, §4, §5

P. aeruginosa A9843A = conditions: Pseudomonas aeruginosa, A9843A, 18 h, pH 7.2
Protocol: as §1, §2, §3, §4, §5

C. freundii GN 7391 = conditions: Citrobacter freundii, GN7391, Mueller-Hinton agar pH 7.2, 32° C., 18 hr, 10^6 cells/ml
Protocol: as §1, §3, §4, §5

E. faecium A24817 = conditions: Enterococcus faecium, Mueller-Hinton agar pH 7.2, 32° C., 18 hr, 10^6 cells/ml
Protocol: as §1, §3, §4, §5

P. aeruginosa IPM-9 = conditions: Pseudomonas aeruginosa, IPM9, Mueller-Hinton agar pH 7.2, 32° C., 18 hr, 10^6 cells/ml
Protocol: as §1, §3, §4, §5

E. faecalis A9808 = conditions: Enterococcus faecalis, Mueller-Hinton agar pH 7.2, 32° C., 18 hr, 10^6 cells/ml
Protocol: as §1, §3, §4, §5

B. subtilis PCI 219 = conditions: Bacillus subtilis, PCI219, Mueller-Hinton agar pH 7.2, 32° C., 18 hr, 10^6 cells/ml
Protocol: as §1, §3, §4, §5

P. aeruginosa KKA 19 = conditions: Pseudomonas aeruginosa, KKA19, Mueller-Hinton agar pH 7.2, 32° C., 18 hr, 10^6 cells/ml
Protocol: as §1, §3, §4, §5

S. marcescens IPM-16 = conditions: Serratia marcescens, IPM16, Mueller-Hinton agar pH 7.2, 32° C., 18 hr, 10^6 cells/ml
Protocol: as §1, §3, §4, §5

P. rettgeri IPM-14 = conditions: Providencia rettgeri, IPM14, Mueller-Hinton agar pH 7.2, 32° C., 18 hr, 10^6 cells/ml
Protocol: as §1, §3, §4, §5

X. maltophilia GN 12873 = conditions: Stenotrophomonas maltophilia, GN12873, Mueller-Hinton agar pH 7.2, 32° C., 18 hr, 10^6 cells/ml
Protocol: as §1, §3, §4, §5

X. maltophilia No. 661 = conditions: Stenotrophomonas maltophilia, Mueller-Hinton agar pH 7.2, 32° C., 18 hr, 10^6 cells/ml
Protocol: as §1, §3, §4, §5

K. pneumoniae PCI 602 = conditions: Klebsiella pneumoniae, PCI602, Mueller-Hinton agar pH 7.2, 32° C., 18 hr, 10^6 cells/ml
Protocol: as §1, §3, §4, §5

P. cepacia No. 651 = conditions: Burkholderia cepacia, Mueller-Hinton agar pH 7.2, 32° C., 18 hr, 10^6 cells/ml
Protocol: as §1, §3, §4, §5

S. marcescens IPM-15 = conditions: Serratia marcescens, IPM15, Mueller-Hinton agar pH 7.2, 32° C., 18 hr, 10^6 cells/ml
Protocol: as §1, §3, §4, §5

P. aeruginosa IPM-8 = conditions: Pseudomonas aeruginosa, IPM8, Mueller-Hinton agar pH 7.2, 32° C., 18 hr, 10^6 cells/ml
Protocol: as §1, §3, §4, §5

C. terrigena IFO 12685 = conditions: Mueller-Hinton agar pH 7.2, 32° C., 18 hr, 10^6 cells/ml
Protocol: as §1, §3, §4, §5

P. aeruginosa A20599 = conditions: Pseudomonas aeruginosa, Mueller-Hinton agar pH 7.2, 32° C., 18 hr, 10^6 cells/ml
Protocol: as §1, §3, §4, §5

S. aureus IPM-24 (MRSA) = conditions: Staphylococcus aureus, Mueller-Hinton agar pH 7.2, 32° C., 18 hr, 10^6 cells/ml
Protocol: as §1, §3, §4, §5

S. epidermidis 11-1230 = conditions: Staphylococcus epidermidis, 111230, Mueller-Hinton agar pH 7.2, 32° C., 18 hr, 10^6 cells/ml
Protocol: as §1, §3, §4, §5

S. aureus 4-1015 (MRSA) = conditions: Staphylococcus aureus, Mueller-Hinton agar pH 7.2, 32° C., 18 hr, 10^6 cells/ml
Protocol: as §1, §3, §4, §5

P. mirabilis IFO-2849 = conditions: Proteus mirabilis, IFO2849, Mueller-Hinton agar pH 7.2, 32° C., 18 hr, 10^6 cells/ml
Protocol: as §1, §3, §4, §5

P. cepacia A21213 = conditions: Burkholderia cepacia, Mueller-Hinton agar pH 7.2, 32° C., 18 hr, 10^6 cells/ml
Protocol: as §1, §3, §4, §5

S. aureus 209P = conditions: Staphylococcus aureus; S. aureus 209P; Mueller-Hinton agar pH 7.2; 32° C., 18 hr; 10^6 cells/ml; read-out: MIC
Protocol: as §1, §3, §4, §5

P. vulgaris IPM-13 = conditions: Proteus vulgaris, IPM13, Mueller-Hinton agar pH 7.2, 32° C., 18 hr, 10^6 cells/ml
Protocol: as §1, §3, §4, §5

M. morgani 1510/9 = conditions: Mueller-Hinton agar pH 7.2, 32° C., 18 hr, 10^6 cells/ml
Protocol: as §1, §3, §4, §5

M. luteus 1001 = conditions: Micrococcus luteus, Mueller-Hinton agar pH 7.2, 32° C., 18 hr, 10^6 cells/ml
Protocol: as §1, §3, §4, §5

E. coli 255 = conditions: Escherichia coli, Mueller-Hinton agar pH 7.2, 32° C., 18 hr, 10^6 cells/ml
Protocol: as §1, §3, §4, §5

E. cloacae IPM-12 = conditions: Enterobacter cloacae, IPM12, Mueller-Hinton agar pH 7.2, 32° C., 18 hr, 10^6 cells/ml
Protocol: as §1, §3, §4, §5

M. morgani 1510 = conditions: Mueller-Hinton agar pH 7.2, 32° C., 18 hr, 10^6 cells/ml
Protocol: as §1, §3, §4, §5

Compound	MIC (E. coli Juhl A15119) [µg/mL]	MIC (P. aeruginosa A9843A) [µg/mL]	MIC (C. freundii GN 7391) [µg/mL]	MIC (E. faecium A24817) [µg/mL]	MIC (P. aeruginosa IPM-9) [µg/mL]	MIC (E. faecalis A9808) [µg/mL]	MIC (B. subtilis PCI 219) [µg/mL]	MIC (P. aeruginosa KKA 19) [µg/mL]	MIC (S. marcescens IPM-16) [µg/mL]	MIC (P. rettgeri IPM-14) [µg/mL]	MIC (X. maltophilia GN 12873) [µg/mL]	MIC (X. maltophilia No. 661) [µg/mL]	MIC (K. pneumoniae PCI 602) [µg/mL]	MIC (P. cepacia No. 651) [µg/mL]	MIC (S. marcescens IPM-15) [µg/mL]	MIC (P. aeruginosa IPM-8) [µg/mL]	MIC (C. terrigena IFO 12685) [µg/mL]	MIC (P. aeruginosa A20599) [µg/mL]	MIC (S. aureus IPM-24 (MRSA)) [µg/mL]	MIC (S. epidermidis 11-1230) [µg/mL]	further results
C[n+]1cn(C/C=C/C2=C(C(=O)[O-])N3C(=O)C(NC(=O)/C(=N\OC(C)(C)C(=O)O)c4csc(N)n4)C3SC2)c2cc(O)c(O)cc21 (centres unmarked) [Ip, 7-[(Z)-2-(2-Aminothiazol-4-yl)-2-(1-methyl-1-carboxyethoxy-imino)acetamido]-3-[(E)-3-(5,6-dihydroxy-3-methylbenzimi-dazol-3-io-1-yl)-1-propen-1-yl]-3-cephem-4-carboxylate]	0.2 (≈ 0.304 µM)	0.1 (≈ 0.152 µM)	12.5 (≈ 19 µM)	> 100	12.5 (≈ 19 µM)	> 100	12.5 (≈ 19 µM)	0.2 (≈ 0.304 µM)	3.1 (≈ 4.71 µM)	0.2 (≈ 0.304 µM)	1.6 (≈ 2.43 µM)	0.8 (≈ 1.22 µM)	0.013 (≈ 0.0198 µM)	3.1 (≈ 4.71 µM)	> 100	0.1 (≈ 0.152 µM)	1.6 (≈ 2.43 µM)	0.2 (≈ 0.304 µM)	> 100	25 (≈ 38 µM)	MIC (S. aureus Smith; 18 h, pH 7.2): 100 µg/mL (≈ 152 µM); MIC (S. aureus 4-1015 (MRSA)): > 100 µg/mL; MIC (P. mirabilis IFO-2849): 0.05 µg/mL (≈ 0.076 µM); MIC (P. cepacia A21213): 1.6 µg/mL (≈ 2.43 µM); MIC (S. aureus 209P): 25 µg/mL (≈ 38 µM); MIC (P. vulgaris IPM-13): 12.5 µg/mL (≈ 19 µM); MIC (M. morgani 1510/9): 0.1 µg/mL (≈ 0.152 µM); MIC (M. luteus 1001): 3.1 µg/mL (≈ 4.71 µM); MIC (E. coli 255): 0.05 µg/mL (≈ 0.076 µM); MIC (E. cloacae IPM-12): 3.1 µg/mL (≈ 4.71 µM); MIC (M. morgani 1510): 1.6 µg/mL (≈ 2.43 µM)
CO/N=C(\C(=O)NC1C(=O)N2C(C(=O)O)=C(/C=C/Cn3cnc4cc(O)c(O)cc43)CS[C@H]12)c1csc(N)n1 (some centres unmarked) [Iu, 7-[(Z)-2-(2-aminothiazol-4-yl)-2-methoxyiminoacetamido]-3-[(E)-3-(5,6-dihydroxybenzimidazol-1-yl)-1-propen-1-yl]-3-cephem-4-carboxylic acid]	0.2 (≈ 0.35 µM)	6.3 (≈ 11 µM)	100 (≈ 175 µM)	> 100	100 (≈ 175 µM)	100 (≈ 175 µM)	3.1 (≈ 5.42 µM)	100 (≈ 175 µM)	> 100	0.8 (≈ 1.4 µM)	> 100	> 100	0.05 (≈ 0.0875 µM)	> 100	> 100	25 (≈ 43.7 µM)	1.6 (≈ 2.8 µM)	6.3 (≈ 11 µM)	> 100	50 (≈ 87.5 µM)	MIC (S. aureus Smith; S. aureus Smith, Mueller-Hinton agar pH 7.2, 32° C., 18 hr, 10^6 cells/ml, read-out: MIC): 6.3 µg/mL (≈ 11 µM); MIC (S. aureus 4-1015 (MRSA)): 50 µg/mL (≈ 87.5 µM); MIC (P. mirabilis IFO-2849): 0.1 µg/mL (≈ 0.175 µM); MIC (P. cepacia A21213): > 100 µg/mL; MIC (S. aureus 209P): 6.3 µg/mL (≈ 11 µM); MIC (P. vulgaris IPM-13): > 100 µg/mL; MIC (M. morgani 1510/9): 0.4 µg/mL (≈ 0.7 µM); MIC (M. luteus 1001): 0.8 µg/mL (≈ 1.4 µM); MIC (E. coli 255): 0.8 µg/mL (≈ 1.4 µM); MIC (E. cloacae IPM-12): > 100 µg/mL; MIC (M. morgani 1510): 25 µg/mL (≈ 43.7 µM)
